Here are results for 9 molecules from US11491165B2 (Kinoxis Therapeutics Pty Ltd, priority 2016, dated 2022).

The target of data set [1] is T1, vasopressin 1a receptor (V1aR) (Homo sapiens, UniProt P37288).
T1 construct: expressed in transfected cells
The data set can be described thus: IP1 accumulation assay, V1aR-expressing HEK-293 cells (agonist and antagonist assessment). The following applies: for EC50: agonist assessment, IP1, 1 h; for IC50: antagonist assessment vs AVP 25 nM (~EC70), IP1. It is filed as cell-based. The protocol: Cells were subsequently maintained in 10% DMEM containing hygromycin (80 μg/ml), penicillin (100 U/ml), streptomycin (0.1 mg/ml) and blasticidine S hydrochloride (15 μg/ml).
Cells were incubated in tetracycline (2 μg/mL) for 48 h to induce receptor expression. Intracellular IP1 levels induced by activation of the Gq protein coupled to the OTR and V1aR was indexed using the HTRF IP-One kit (CisBio International, Bedford, Mass., USA), according to manufacturer's protocol. For agonist assessment, cells were incubated with logarithmically-spaced concentrations of compounds (1 nM-100 μM) for 1 h prior to the addition of Ab-Cryptate and IP1-d2 for 1 h. The contents of each well were transferred to a white-walled proxy plate (Perkin Elmer) and fluorescence read using a Pherastar Microplate reader (BMG Labtech, Cary, N.C., USA). […] IP1 levels in the presence of compounds and OT or AVP were expressed as a percentage of levels seen with OT or AVP in the presence of vehicle control. Concentration response curves for OT and AVP were determined after 5 min incubation in drug or vehicle, and the data fitted using GraphPad PRISM to a 4-parameter logistic equation of the form y=Min+(Max−Min)/(1+10^((logEC50−X)*n)) where X is drug concentration and n is the H-ill slope. Data represent the mean±s.d. of at least 3 independent experiments, each in duplicate.

The target in data set [2] is T2, oxytocin receptor (OXTR), hOTR (Homo sapiens, UniProt P30559).
T2 construct: expressed in transfected cells
T2 sequence (P30559 1-389): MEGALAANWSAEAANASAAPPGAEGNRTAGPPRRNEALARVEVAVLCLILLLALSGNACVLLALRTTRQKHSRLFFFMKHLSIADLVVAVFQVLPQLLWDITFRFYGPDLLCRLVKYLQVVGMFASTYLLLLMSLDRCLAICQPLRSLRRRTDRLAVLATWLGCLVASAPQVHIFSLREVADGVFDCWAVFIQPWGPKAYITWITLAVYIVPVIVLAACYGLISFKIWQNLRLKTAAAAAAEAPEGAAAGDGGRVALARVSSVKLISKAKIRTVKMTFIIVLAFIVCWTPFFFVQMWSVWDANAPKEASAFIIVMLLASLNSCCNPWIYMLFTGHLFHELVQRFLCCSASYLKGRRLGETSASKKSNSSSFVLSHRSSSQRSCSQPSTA
Kind of data set: Competition radioligand binding, [3H]-oxytocin, OTR-expressing HEK293 membranes. Conditions: [3H]-oxytocin 10 nM, 90 min 4 °C. The protocol:
(§1) Human embryonic kidney cells (HEK-293) transfected to stably express untagged hOTR and V1aR using the Flp-In™ T-REx™ system (Life Technologies, Carlsbad, Calif. USA) were established as reported in Jorgensen et al., 2016 (the entire disclosure of which is hereby incorporated by reference). Cells were subsequently maintained in 10% DMEM containing hygromycin (80 μg/ml), penicillin (100 U/ml), streptomycin (0.1 mg/ml) and blasticidine S hydrochloride (15 μg/ml).
(§2) To induce receptor expression, cells were incubated with tetracycline (2 μg/mL) for 48 h. PBS with 5 mM EDTA (pH 7.4) was used to detach OTR and V1aR-expressing HEK293 cells from culture flasks. Harvested cells were centrifuged at 1200 g for 5 min and were resuspended in homogenization buffer (50 mM HEPES, 5 mM EDTA, 5 mM MgCl2; pH 7.4) prior to homogenization using an Ultra-Turrax homogeniser (IKA, Wilmington, N.C., USA). Homogenates were centrifuged three times for 30 min at 48.000 g, 4° C. for 30 min and membrane pellets resuspended in 50 mM Tris HCl, 5 mM MgCl2 (pH 7.4). A bicinchoninic acid assay was used according to the manufacturer's protocol (Bio-Rad, Hercules. Calif., USA) to measure final protein concentration. Membranes were stored at −80° C. until use in competition radioligand binding studies.
(§3) Reactions were incubated for 90 min at 4° C. to reach equilibrium, and terminated by rapid filtration over glass fibre filters (Whatman GF/A […]; Millipore, Darmstadt, Germany), and washing with ice-cold reaction buffer. Filters were dried, then incubated with Microscint 0 (Perkin Elmer) for 30 min before radioactivity was detected with a Microbeta2 2450 microplate-reader (Perkin Elmer). […] Specific binding in the presence of compounds was expressed as a percentage of specific binding in the presence of vehicle control. A sum-of-squares F-test was used to compare the goodness of fit of one-site, two-site and sigmoidal with variable hill slope binding models, and to calculate Ki's using Graphpad Prism (Graphpad Software, La Jolla, Calif., USA).

In data set [3] the target is T1, vasopressin 1a receptor (V1aR). Kind of data set: Competition radioligand binding, [3H]-vasopressin, V1aR-expressing HEK293 membranes. Conditions: [3H]-vasopressin 2 nM, 90 min 4 °C. The protocol: as §1, §2, §3
The target in data set [4] is T2, oxytocin receptor (OXTR), hOTR. The data set can be described thus: IP1 accumulation assay, OTR-expressing HEK-293 cells (agonist and antagonist assessment). The format is cell-based. The following applies: for EC50 / EC50 (OXTR agonist potency, mean ± s.d.): agonist assessment; for EC50: IP1, 1 h; for IC50: antagonist assessment vs OT 30 nM (~EC70); for IC50 / EC50 (OXTR agonist potency, mean ± s.d.): IP1; for Emax: HEK293, read-out: OXTR Emax (% OXT); for OV function: ratio of OXTR functional potency to V1aR functional potency, 'OT only' = function at OXTR only. The protocol:
as §1
OTR or V1aR-expressing HEK-293 cells were seeded onto poly-L-lysine (100 μg/ml)-coated 384-well plates at a density of 8.75×10^3 cells per well. Cells were incubated in tetracycline (2 μg/mL) for 48 h to induce receptor expression. Intracellular IP1 levels induced by activation of the Gq protein coupled to the OTR and V1aR was indexed using the HTRF IP-One kit (CisBio International, Bedford, Mass., USA), according to manufacturer's protocol. For agonist assessment, cells were incubated with logarithmically-spaced concentrations of compounds (1 nM-100 μM) for 1 h prior to the addition of Ab-Cryptate and IP1-d2 for 1 h. The contents of each well were transferred to a white-walled proxy plate (Perkin Elmer) and fluorescence read using a Pherastar Microplate reader (BMG Labtech, Cary, N.C., USA). For antagonist assessment, cells were incubated an ˜EC70 concentration of OT (30 nM) or AVP (25 nM) mixed with compounds (1 nM-100 μM) or vehicle control for 1 h. IP1 levels in the presence of compounds and OT or AVP were expressed as a percentage of levels seen with OT or AVP in the presence of vehicle control. Concentration response curves for OT and AVP were determined after 5 min incubation in drug or vehicle, and the data fitted using GraphPad PRISM to a 4-parameter logistic equation of the form y=Min+(Max−Min)/(1+10^((logEC50−X)*n)) where X is drug concentration and n is the H-ill slope. Data represent the mean±s.d. of at least 3 independent experiments, each in duplicate.

T1 sequence (P37288 whole entry): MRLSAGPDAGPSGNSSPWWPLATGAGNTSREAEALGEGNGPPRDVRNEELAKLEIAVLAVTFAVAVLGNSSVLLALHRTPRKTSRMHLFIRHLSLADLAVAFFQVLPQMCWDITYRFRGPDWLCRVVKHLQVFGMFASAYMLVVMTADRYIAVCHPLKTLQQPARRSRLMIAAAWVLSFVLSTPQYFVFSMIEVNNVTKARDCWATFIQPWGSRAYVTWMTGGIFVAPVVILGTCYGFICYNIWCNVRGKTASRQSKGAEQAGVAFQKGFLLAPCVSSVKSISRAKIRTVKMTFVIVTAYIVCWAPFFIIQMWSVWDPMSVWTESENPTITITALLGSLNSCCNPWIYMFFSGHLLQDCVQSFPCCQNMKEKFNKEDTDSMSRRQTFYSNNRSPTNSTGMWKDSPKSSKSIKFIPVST

For orientation: EC50 means the concentration at which the effect is half-maximal. The term IC50 denotes the concentration needed to halve the response being measured. A higher IC50 goes with a need for much substance. The term Ki denotes the equilibrium dissociation constant of an inhibitor or competing ligand from its target. A word on the melting point: it is the temperature, or range, at which the solid turns liquid. The molecule `Cn1ncc2c1Nc1ccccc1N(S(=O)(=O)c1ccc(Cl)cc1)C2` [WJ0633, 5-((4-Chlorophenyl)sulfonyl)-1-methyl-1,4,5,10-tetrahydrobenzo[b]pyrazolo[3,4-e][1,4]diazepine] displayed a melting point of 206 to 208 °C. For the same molecule, in data set [1], the EC50 is over 10000 nM and the 50% inhibitory concentration (IC50) is over 10000 nM. The same molecule came in with an inhibitory constant (Ki) in data set [2] of over 10000 nM. The molecule further registered a Ki in data set [3] of over 10000 nM. In data set [4], the EC50 is over 10000 nM and the IC50 is over 10000 nM.
Take `Cn1ncc2c1Nc1ccccc1N(S(=O)(=O)c1ccc(C(F)(F)F)cc1)C2` [WJ0639, 1-Methyl-5-((4-(trifluoromethyl)phenyl)sulfonyl)-1,4,5,10-tetrahydrobenzo[b]pyrazolo[3,4-e][1,4]diazepine]: the melting point is 203 to 205 °C. In data set [1], this molecule returned an EC50 of over 10000 nM and an IC50 of over 10000 nM. The Ki in data set [2] was over 10000 nM. In data set [3], this molecule registered an inhibition constant Ki of over 10000 nM. Moreover, in data set [4], the EC50 is over 10000 nM and the 50% inhibitory concentration (IC50) is over 10000 nM.
Take `Cc1ccc(S(=O)(=O)N2Cc3cnn(C)c3Nc3ccccc32)cc1` [WJ0641, 1-Methyl-5-tosyl-1,4,5,10-tetrahydrobenzo[b]pyrazolo[3,4-e][1,4]diazepine]: the melting point fell in the range of 184 to 186 °C. Besides, in data set [1], the EC50 was over 10000 nM and the half-inhibitory concentration (IC50) was over 10000 nM. The same molecule returned an inhibition constant (Ki) in data set [2] of over 10000 nM. For the same molecule, the Ki in data set [3] is over 10000 nM. In data set [4], the EC50 was over 10000 nM and the half-inhibitory concentration (IC50) was over 10000 nM.
Broadly, the Emax is the size of the effect at its maximum, as opposed to the concentration needed. In the case of `Cc1ccc(C(=O)N2Cc3cnn(C)c3Nc3ccccc32)cc1` [WJ0653, (1-Methyl-4,10-dihydrobenzo[b]pyrazolo[3,4-e][1,4]diazepin-5 (1H)-yl)(p-tolyl)methanone], the melting point is 265 °C (dec.). In data set [1], this molecule yielded a 50% effective concentration (EC50) of over 10000 nM and a half-inhibitory concentration (IC50) of 710 ± 267 nM. Also, in data set [2], the Ki amounted to 149 ± 43.4 nM. Also, the Ki in data set [3] amounted to 12.4 ± 2.4 nM. Moreover, in data set [4], the maximal response (Emax) came to 9.54%; the “EC50 (OXTR agonist potency, mean ± s.d.)” value came to 238.8 ± 38.7 nM; the EC50 amounted to 85.3 ± 26.5 nM; the OV function is 0.12.
Take `COc1cccc(C(=O)N2Cc3cnn(C)c3Nc3ccccc32)c1` [WJ0657, (3-Methoxyphenyl)(1-methyl-4,10-dihydrobenzo[b]pyrazolo[3,4-e][1,4]diazepin-5 (1H)-yl)methanone]: the melting point was 267 to 269 °C (dec.). In data set [1], this molecule displayed a half-maximal effective concentration (EC50) of over 10000 nM and an IC50 of 746 ± 158 nM. This molecule gave a Ki in data set [2] of 842 ± 288 nM. The molecule also displayed a Ki in data set [3] of 108 ± 23.5 nM. In data set [4], the Emax is 4.99%; the “EC50 (OXTR agonist potency, mean ± s.d.)” value is on record as 124.9 ± 16.8 nM; a half-maximal response (EC50) required 338 ± 76.5 nM; the OV function was 0.45.
With `COc1ccc(C(=O)N2Cc3cnn(C)c3Nc3ccccc32)cc1` [WJ0661, (4-Methoxyphenyl)(1-methyl-4,10-dihydrobenzo[b]pyrazolo[3,4-e][1,4]diazepin-5 (1H)-yl)methanone], the melting point is 296 to 298 °C (dec.). Moreover, in data set [1], the EC50 is over 10000 nM and the IC50 is 462 ± 136 nM. In data set [2], this molecule displayed a Ki of 272 ± 87.6 nM. Besides, affinity in data set [3] was put at a Ki of 24 ± 3.4 nM. In data set [4], the Emax turned out to be 8.14%; the “EC50 (OXTR agonist potency, mean ± s.d.)” value worked out at 203.8 ± 54.8 nM; a half-maximal response (EC50) required 197 ± 60.3 nM; the OV function is on record as 0.43.
With `Cn1ncc2c1Nc1ccccc1N(C(=O)c1ccc(C(F)(F)F)cc1)C2` [WJ0677, (1-Methyl-4,10-dihydrobenzo[b]pyrazolo[3,4-e][1,4]diazepin-5 (1H)-yl)(4-(trifluoromethyl)phenyl)methanone], the melting point lay within 204 to 206 °C. In data set [1], this molecule came in with a concentration giving a half-maximal response (EC50) of over 10000 nM and an IC50 of over 10000 nM. For the same molecule, in data set [2], the Ki amounted to 560 ± 111 nM. Further, the inhibition constant (Ki) in data set [3] was found to be 96.9 ± 33.5 nM. Moreover, in data set [4], the maximum response (Emax) worked out at 7.72%; the “EC50 (OXTR agonist potency, mean ± s.d.)” value is 193.3 ± 11.3 nM; the 50% effective concentration (EC50) came out at 179 ± 37.8 nM.
As for `Cn1ncc2c1Nc1ccccc1N(C(=O)c1cc(F)cc(F)c1)C2` [WJ0681, (3,5-Difluorophenyl)(1-methyl-4,10-dihydrobenzo[b]pyrazolo[3,4-e][1,4]diazepin-5 (1H)-yl)methanone], the melting point was 290 to 292 °C (dec.). In data set [1], this molecule displayed an EC50 of over 10000 nM and an IC50 of 2210 ± 406 nM. The inhibition constant Ki in data set [2] is 755 ± 164 nM. For the same molecule, in data set [3], the affinity, expressed as Ki, was 47.8 ± 9.4 nM. Besides, in data set [4], the Emax was found to be 10.9%; the “EC50 (OXTR agonist potency, mean ± s.d.)” value turned out to be 272.7 ± 69.4 nM; the EC50 worked out at 521 ± 35.2 nM; the OV function was 0.24.
The molecule `Cc1ccc(C(=O)N2Cc3cnn(C)c3Nc3ccccc32)cc1F` [WJ0683, (3-Fluoro-4-methylphenyl)(1-methyl-4,10-dihydrobenzo[b]pyrazolo[3,4-e][1,4]diazepin-5 (1H)-yl)methanone] yielded a melting point of 235 to 237 °C. Further, in data set [1], the EC50 was over 10000 nM and the IC50 was 1140 ± 165 nM. In data set [2], this molecule yielded an inhibitory constant (Ki) of 103 ± 31 nM. For the same molecule, the affinity in data set [3], expressed as Ki, was 7.8 ± 0.9 nM. Besides, in data set [4], the maximum response (Emax) came out at 11.3%; the “EC50 (OXTR agonist potency, mean ± s.d.)” value is listed as 283.7 ± 22.4 nM; the EC50 was determined as 96.2 ± 22.9 nM; the OV function was 0.085.
